Reference: ChEMBL document CHEMBL5154856, “Targeting the tumor microenvironment by an enzyme-responsive prodrug of tubulin destabilizer for triple-negative breast cancer therapy with high safety” (Eur J Med Chem, 2022)
The source made the active and inactive calls. The rule behind the calls is not given here.

What was measured:
[1] = Chemical stability of compound at pH 7.4 in PBS buffer at 1 mg incubated for 48 hrs by HPLC analysis; format: physicochemical; details: pH 7.4, 48 h
[2] = Chemical stability of compound at pH 7.4 in bovine serum at 1 mg incubated for 48 hrs by HPLC analysis; format: ADME, cell-free; details: cattle, pH 7.4, 48 h
[3] = Stability of compound in phosphate buffer at pH 7.4 assessed as Escherichia coli beta-glucuronidase mediated compound cleavage at 1.2 mg measured after 10 mins by HPLC analysis; format: ADME; details: pH 7.4, 10 min
[4] = tested on: HeLa; assay: Antiproliferative activity against human HeLa cells assessed as inhibition of cell growth incubated for 48 hrs in absence of beta-glucuronidase by MTT assay; format: functional, cell-based
[5] = tested on: MDA-MB-231; assay: Antiproliferative activity against human MDA-MB-231 cells assessed as inhibition of cell growth incubated for 48 hrs in absence of beta-glucuronidase by MTT assay; format: functional, cell-based; details: MDA-MB-231, 48 h
[6] = tested on: SK-OV-3; assay: Antiproliferative activity against human SK-OV-3 cells assessed as inhibition of cell growth incubated for 48 hrs in absence of beta-glucuronidase by MTT assay; format: functional, cell-based; details: SK-OV-3, 48 h
[7] = tested on: MCF7; assay: Antiproliferative activity against human MCF7 cells assessed as inhibition of cell growth incubated for 48 hrs in absence of beta-glucuronidase by MTT assay; format: functional, cell-based; details: MCF7, 48 h
[8] = tested on: HeLa; assay: Antiproliferative activity against human HeLa cells assessed as inhibition of cell growth incubated for 48 hrs in presence of beta-glucuronidase by MTT assay; format: functional, cell-based
[9] = tested on: MDA-MB-231; assay: Antiproliferative activity against human MDA-MB-231 cells assessed as inhibition of cell growth incubated for 48 hrs in presence of beta-glucuronidase by MTT assay; format: functional, cell-based; details: MDA-MB-231, 48 h
[10] = tested on: SK-OV-3; assay: Antiproliferative activity against human SK-OV-3 cells assessed as inhibition of cell growth incubated for 48 hrs in presence of beta-glucuronidase by MTT assay; format: functional, cell-based; details: SK-OV-3, 48 h
[11] = tested on: MCF7; assay: Antiproliferative activity against human MCF7 cells assessed as inhibition of cell growth incubated for 48 hrs in presence of beta-glucuronidase by MTT assay; format: functional, cell-based; details: MCF7, 48 h
[12] = Metabolic stability in rat liver microsomes assessed as half life at 10 mM measured up to 60 mins in presence of NADPH by LC-MS/MS analysis; format: ADME, Microsome
[13] = Metabolic stability in rat liver microsomes assessed as intrinsic clearance in microsomes at 10 mM measured up to 60 mins in presence of NADPH by LC-MS/MS analysis; format: ADME, Microsome; details: read-out: CLH
[14] = Metabolic stability in rat liver microsomes assessed as intrinsic clearance in liver at 10 mM measured up to 60 mins in presence of NADPH by LC-MS/MS analysis; format: ADME, Microsome; details: read-out: CLH
[15] = Metabolic stability in rat liver microsomes assessed as parent compound remaining at 10 mM measured up to 60 mins in presence of NADPH by LC-MS/MS analysis; format: ADME, Microsome; details: read-out: Stability
[16] = Aqueous solubility of compound in PBS at pH 7.4 at 1 mg incubated for 10 mins by HPLC analysis; format: physicochemical
[17] = tested on: HeLa; assay: Antiproliferative activity against human HeLa cells assessed as inhibition of cell growth incubated for 48 hrs by MTT assay; format: functional, cell-based
[18] = tested on: MDA-MB-231; assay: Antiproliferative activity against human MDA-MB-231 cells assessed as inhibition of cell growth incubated for 48 hrs by MTT assay; format: functional, cell-based; details: MDA-MB-231, 48 h
[19] = tested on: MCF7; assay: Antiproliferative activity against human MCF7 cells assessed as inhibition of cell growth incubated for 48 hrs by MTT assay; format: functional, cell-based; details: MCF7, 48 h
[20] = Acute toxicity in BALB/c mouse assessed as lethal dose administered intravenously as single dose and measured after 14 days; details: in vivo, route iv, time 14 day
[21] = Acute toxicity in BALB/c mouse assessed as animal survival at 12.5 mg/kg, iv administered as single dose measured after 14 days; format: organism-based; details: in vivo, time 14 day
[22] = Acute toxicity in BALB/c mouse assessed as animal survival at 25 mg/kg, iv administered as single dose measured after 14 days; format: organism-based; details: in vivo, time 14 day
[23] = Acute toxicity in BALB/c mouse assessed as animal survival at 50 mg/kg, iv administered as single dose measured after 14 days; format: organism-based; details: in vivo, time 14 day
[24] = Acute toxicity in BALB/c mouse assessed as animal survival at 70 mg/kg, iv administered as single dose measured after 14 days; format: organism-based; details: in vivo, time 14 day
[25] = Acute toxicity in BALB/c mouse assessed as animal survival at 100 mg/kg, iv administered as single dose measured after 14 days; format: organism-based; details: in vivo, time 14 day
[26] = Toxicity in nude mouse xenografted with human MDA-MB-231 cells assessed as pathological changes in kidney at 3.75 mg/kg, iv administered every 2 days for 14 days by H and E staining based assay; format: organism-based; details: in vivo, 336 h, time 14 day
[27] = Toxicity in nude mouse xenografted with human MDA-MB-231 cells assessed as pathological changes in liver at 3.75 mg/kg, iv administered every 2 days for 14 days by H and E staining based assay; format: organism-based; details: in vivo, 336 h, time 14 day
[28] = Toxicity in nude mouse xenografted with human MDA-MB-231 cells assessed as pathological changes in spleen at 3.75 mg/kg, iv administered every 2 days for 14 days by H and E staining based assay; format: organism-based; details: in vivo, 336 h, time 14 day
[29] = tested on: MDA-MB-231; assay: Antitumor activity against mouse xenografted with human MDA-MB-231 cells assessed as increase in tumor necrosis area at 3.75 mg/kg, iv administered every 2 days for 14 days by H and E staining based assay; format: functional, organism-based; details: time 14.0 day
[30] = Toxicity in nude mouse assessed as effect on total protein level in serum at 3.75 mg/kg, iv administered qd for 3 days (reference value: 47.3 g/L); format: organism-based; details: in vivo, 72 h, time 3 day
[31] = Toxicity in nude mouse assessed as effect on albumin level in serum at 3.75 mg/kg, iv administered qd for 3 days (reference value: 31.2 g/L); format: organism-based; details: in vivo, 72 h, time 3 day
[32] = Toxicity in nude mouse assessed as effect on globulin level in serum at 3.75 mg/kg, iv administered qd for 3 days (reference value: 16.1 g/L); format: organism-based; details: in vivo, 72 h, time 3 day
[33] = Toxicity in nude mouse assessed as effect on alanine aminotransferase level in serum at 3.75 mg/kg, iv administered qd for 3 days (reference value: 308 U/L); format: organism-based; details: in vivo, 72 h, time 3 day
[34] = Toxicity in nude mouse assessed as effect on aspartate aminotransferase level in serum at 3.75 mg/kg, iv administered qd for 3 days (reference value: 424 U/L); format: organism-based; details: in vivo, 72 h, time 3 day
[35] = Toxicity in nude mouse assessed as effect on total bilirubin level in serum at 3.75 mg/kg, iv administered qd for 3 days (reference value: 3.3 micromol/L); format: organism-based; details: in vivo, 72 h, time 3 day
[36] = Toxicity in nude mouse assessed as effect on alkaline phosphatase level in serum at 3.75 mg/kg, iv administered qd for 3 days (reference value: 66 U/L); format: organism-based; details: in vivo, 72 h, time 3 day
[37] = Toxicity in nude mouse assessed as effect on gamma-glutamyl transpeptidase level in serum at 3.75 mg/kg, iv administered qd for 3 days (Rvb < 2 U/L); format: organism-based; details: in vivo, 72 h, time 3 day
[38] = Toxicity in nude mouse assessed as effect on white blood cell count at 3.75 mg/kg, iv administered qd for 3 days (reference value: 0.02 10^9/L); format: organism-based; details: in vivo, 72 h, time 3 day
[39] = Toxicity in nude mouse assessed as effect on platelet count at 3.75 mg/kg, iv administered qd for 3 days (reference value: 21 10^9/L); format: organism-based; details: in vivo, 72 h, time 3 day
[40] = Toxicity in nude mouse assessed as effect on mean corpuscular hemoglobin level at 3.75 mg/kg, iv administered qd for 3 days (reference value: 22.3 pg); format: organism-based; details: in vivo, 72 h, time 3 day
[41] = Toxicity in nude mouse assessed as effect on mean corpuscular hemoglobin concentration at 3.75 mg/kg, iv administered qd for 3 days (reference value: 473 g/L); format: organism-based; details: in vivo, 72 h, time 3 day
[42] = Toxicity in nude mouse assessed as effect on neutrophil level at 3.75 mg/kg, iv administered qd for 3 days (reference value: 7.40 %); format: organism-based; details: in vivo, 72 h, time 3 day
[43] = Toxicity in nude mouse assessed as effect on eosinophil level at 3.75 mg/kg, iv administered qd for 3 days (reference value: 6 %); format: organism-based; details: in vivo, 72 h, time 3 day
[44] = Toxicity in nude mouse assessed as effect on basophil level at 3.75 mg/kg, iv administered qd for 3 days (reference value: 11.70 %); format: organism-based; details: in vivo, 72 h, time 3 day
[45] = Toxicity in nude mouse assessed as effect on lymphocyte level at 3.75 mg/kg, iv administered qd for 3 days (reference value: 60.90 %); format: organism-based; details: in vivo, 72 h, time 3 day
[46] = Toxicity in nude mouse assessed as effect on monocytes level at 3.75 mg/kg, iv administered qd for 3 days (reference value: 37.10 %); format: organism-based; details: in vivo, 72 h, time 3 day
[47] = Toxicity in nude mouse assessed as effect on platelet distribution width at 3.75 mg/kg, iv administered qd for 3 days (reference value: 20.2); format: organism-based; details: in vivo, 72 h, time 3 day
[48] = Cardiotoxicity in nude mouse assessed as abnormal spikes at 5 mg/kg, iv administered once daily for 3 days by ECG analysis; format: toxicity, organism-based; details: in vivo, 72 h, time 3 day
[49] = Cardiotoxicity in nude mouse assessed as prolonged QT intervals at 5 mg/kg, iv administered once daily for 3 days by ECG analysis; format: toxicity, organism-based; details: in vivo, 72 h, time 3 day
[50] = Toxicity in nude mouse assessed as animal death at 5 mg/kg, iv administered 3 consecutive dosages; format: organism-based; details: in vivo
[51] = Stability of compound in phosphate buffer at pH 7.4 assessed as Escherichia coli beta-glucuronidase mediated compound cleavage at 1.2 mg measured after 2 hrs by HPLC analysis; format: ADME; details: pH 7.4, 2 h
[52] = tested on: SK-OV-3; assay: cells; details: Homo sapiens, SK-OV-3, 48 h
Description: Antiproliferative activity against human SK-OV-3 cells assessed as inhibition of cell growth incubated for 48 hrs by MTT assay

Structure (SMILES): COc1ccc([C@H]2[C@H](CF)C(=O)N2c2cc(OC)c(OC)c(OC)c2)cc1OCc1ccc(O[C@@H]2O[C@H](C(=O)O)[C@@H](O)[C@H](O)[C@H]2O)cc1
- Stability [1]: Stable
- Stability [2]: Stable
- Stability [3]: Unstable
- IC50 [4]: > 50000 nM
- IC50 [5]: > 50000 nM
- IC50 [6]: > 50000 nM
- IC50 [7]: > 50000 nM
- IC50 [8]: 14.3 nM
- IC50 [9]: 3.5 nM
- IC50 [10]: 22.6 nM
- IC50 [11]: 15.5 nM
- half-life [12]: > 2.42 h
- microsomal CLint [13]: < 9.6 µL/min/mg
- CLint scaled [14]: < 38 mL/min/kg
- remaining at 1 h [15]: 84.6%
- solubility at 10 min [16]: > 40 mg/mL

Structure (SMILES): COc1ccc([C@H]2[C@H](CO)C(=O)N2c2cc(OC)c(OC)c(OC)c2)cc1O (racemic)
- IC50 [17]: 5.9 nM
- IC50 [18]: 11.9 nM
- IC50 [19]: 14.8 nM
- LD50 at 336 h [20]: 65 mg/kg
- survival at 336 h [21]: 100%
- survival at 336 h [22]: 100%
- survival at 336 h [23]: 87.5%
- survival at 336 h [24]: 37.5%
- survival at 336 h [25]: 0%
- Activity [26]: Non-Toxic
- Activity [27]: Non-Toxic
- Activity [28]: Non-Toxic
- Activity [29]: Active
- Activity [30]: 48.8 g/L
- Activity [31]: 33.1 g/L
- Activity [32]: 15.7 g/L
- Activity [33]: 196 U/L
- Activity [34]: 503 U/L
- Activity [35]: 6.3 µmol/L
- Activity [36]: 142 U/L
- Activity [37]: < 2 U/L
- Activity [38]: 0.05 10^9/L
- Activity [39]: 99 10^9/L
- Activity [40]: 23.5 pg
- Activity [41]: 488 g/L
- Activity [42]: 7.4%
- Activity [43]: 18.2%
- Activity [44]: 4.7%
- Activity [45]: 66.7%
- Activity [46]: 7.7%
- Activity [47]: 18.5
- Activity [48]: Toxic
- Activity [49]: Toxic
- Activity [50]: Toxic

Structure (SMILES): COc1cc(C(=O)c2c(N)oc3c(OCc4ccc(O[C@@H]5O[C@H](C(=O)O)[C@@H](O)[C@H](O)[C@H]5O)cc4)c(OC)ccc23)cc(OC)c1OC
- Stability [1]: Stable
- Stability [2]: Stable
- Stability [51]: Unstable

Structure (SMILES): COc1ccc([C@H]2[C@H](CF)C(=O)N2c2cc(OC)c(OC)c(OC)c2)cc1O
- IC50 [17]: 6.7 nM
- IC50 [18]: 1.1 nM
- IC50 [19]: 12.5 nM
- IC50 [52]: 3.8 nM

Structure (SMILES): COc1ccc([C@H]2[C@H](CO)C(=O)N2c2cc(OC)c(OC)c(OC)c2)cc1OCc1ccc(O[C@@H]2O[C@H](C(=O)O)[C@@H](O)[C@H](O)[C@H]2O)c([N+](=O)[O-])c1
- Stability [1]: Stable
- Stability [2]: Stable
- Stability [51]: Unstable
